Here are results for 18 compounds from article PMC9150106, “Phenyl Bis-Sulfonamide Keap1-Nrf2 Protein–Protein Interaction Inhibitors with an Alternative Binding Mode” (Journal of Medicinal Chemistry, 2022).

Values after ≈ are worked out from the molar mass of the structure shown. Structures can show the parent of a compound that is named as a salt.

Series [1] is described as follows: physchem. Conditions: pH 7.4.
The test system of series [2] is NQO1 enzymatic activity (Nrf2 transcriptional activity). The experiment in a line: NQO1 enzyme activity assay in Hepa1c1c7 cells. The series is classed as cell-based, mouse. The settings on record: Hepa1c1c7, 24 h.
For series [3], the system named is Hepa1c1c7 mouse hepatoma cells. In words: Cytotoxicity seen in the NQO1 assay. The class given is cell-based.
Series [4] is described as follows: in vitro. The settings on record: human, Cytotoxicity IC50 concentration.
The subject of series [5] is ARPE19 retinal pigment epithelial cells. The settings on record: human.
The conditions of series [6]: PAMPA, pH 7.4. (In general: The PAMPA barrier holds no transporters, so it reflects passive diffusion.)
Series [7] deals with Keap1 Kelch domain protein (Homo sapiens, UniProt Q14145). Conditions: 10 μM compound, 5 μM Keap1; Ti Keap1 + vehicle 61.3 °C.
Sequence of Keap1 Kelch domain protein (Q14145 321-609 limits assumed): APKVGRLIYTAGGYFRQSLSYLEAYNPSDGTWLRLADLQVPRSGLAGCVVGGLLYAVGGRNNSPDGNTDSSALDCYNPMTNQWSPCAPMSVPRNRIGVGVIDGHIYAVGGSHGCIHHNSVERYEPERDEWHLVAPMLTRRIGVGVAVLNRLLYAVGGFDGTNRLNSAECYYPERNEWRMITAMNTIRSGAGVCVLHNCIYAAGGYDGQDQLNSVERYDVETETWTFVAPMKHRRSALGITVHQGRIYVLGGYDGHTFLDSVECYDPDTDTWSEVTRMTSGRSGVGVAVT

For `CCCCOc1cc(N(CC(=O)O)S(=O)(=O)c2ccc(OC)cc2)ccc1N(CC(=O)O)S(=O)(=O)c1ccc(OC)cc1` [Compound 32, 2,2′-((2-Butoxy-1,4-phenylene)bis(((4-methoxyphenyl)sulfonyl)azanediyl))diacetic Acid], the solubility (usually how much of the substance goes into solution per volume) in series [1] is 362 µg/mL (≈ 569 µM).

The compound `COc1ccc(S(=O)(=O)N(CC(=O)O)c2ccc(N(CC(=O)O)S(=O)(=O)c3ccc(OC)cc3)c(Oc3ccccc3)c2)cc1` [Compound 33, 2,2′-((2-Phenoxy-1,4-phenylene)bis(((4-methoxyphenyl)sulfonyl)azanediyl))diacetic Acid] displayed a solubility in series [1] of 363 µg/mL (≈ 553 µM).

For the compound `COc1ccc(S(=O)(=O)N(CC(=O)O)c2ccc(N(CC(=O)O)S(=O)(=O)c3ccc(OC)cc3)c(O)c2)cc1` [Compound 39, 2,2′-((2-Hydroxy-1,4-phenylene)bis(((4-methoxyphenyl)sulfonyl)azanediyl))diacetic Acid], the solubility in series [1] came out at 343 µg/mL (≈ 591 µM).

The compound `CCCOc1cc(N(CC(=O)O)S(=O)(=O)c2ccc(OC)cc2)ccc1N(CC(=O)O)S(=O)(=O)c1ccc(OC)cc1` [Compound 36, 2,2′-((2-Propoxy-1,4-phenylene)bis(((4-methoxyphenyl)sulfonyl)azanediyl))diacetic Acid] displayed a solubility in series [1] of 347 µg/mL (≈ 557 µM).

Consider `COC(=O)[C@]12CCC(C)(C)C[C@H]1[C@H]1C(=O)C=C3[C@@]4(C)C=C(C#N)C(=O)C(C)(C)[C@@H]4CC[C@@]3(C)[C@]1(C)CC2` [CDDO-Me, bardoxolone methyl], for which the “NQO1 induction, concentration-response” value in series [2] is “Dose-dependent induction”. In series [3], the “Concentration above which cytotoxic in NQO1 assay” value is “higher than 1 μM”.

Turning to `COc1ccc(S(=O)(=O)N(CC(=O)O)c2ccc(N(CC(=O)O)S(=O)(=O)c3ccc(OC)cc3)c(OC)c2)cc1` [Compound 10, 2,2′-((2-Methoxy-1,4-phenylene)bis(((4-methoxyphenyl)sulfonyl)azanediyl))diacetic Acid], in series [1], the solubility was found to be 271 µg/mL (≈ 456 µM).

With `COc1ccc(S(=O)(=O)N(CC(=O)O)c2ccc(N(CC(=O)O)S(=O)(=O)c3ccc(OC)cc3)c(OCc3ccccc3)c2)cc1` [Compound 11, 2,2′-((2-(Benzyloxy)-1,4-phenylene)bis(((4-methoxyphenyl)sulfonyl)azanediyl))diacetic Acid], in series [1], the concentration in solution (solubility) was 348 µg/mL (≈ 519 µM).

`C[S+]([O-])CCCCN=C=S` (centres unmarked) [Sulforaphane, sulforaphane]: the IC50 (as a rule, the point on the concentration scale where inhibition reaches its midpoint) in series [4] was 9.89 ± 2.91 µM; in series [5], ~10 µM.

`CCOc1cc(N(CC(=O)O)S(=O)(=O)c2ccc(OC)cc2)ccc1N(CC(=O)O)S(=O)(=O)c1ccc(OC)cc1` [Compound 31, 2,2′-((2-Ethoxy-1,4-phenylene)bis(((4-methoxyphenyl)sulfonyl)azanediyl))diacetic Acid] returned a solubility in series [1] of 337 µg/mL (≈ 554 µM).

`COc1ccc(S(=O)(=O)N(Cc2nnn[nH]2)c2ccc(N(CC(=O)O)S(=O)(=O)c3ccc(OC)cc3)c(OCc3ccccc3)c2)cc1` [Compound 51, N-(4-((N-((1H-Tetrazol-5-yl)methyl)-4-methoxyphenyl)sulfonamido)-2-(benzyloxy)phenyl)-N-((4-methoxyphenyl)sulfonyl)glycine]: in series [1], the solubility came to 254 µg/mL (≈ 366 µM).

Compound `COc1ccc(S(=O)(=O)N(CC(=O)O)c2ccc(N(CC(=O)O)S(=O)(=O)c3ccc(OC)cc3)c(OC(C)C)c2)cc1` [Compound 37, 2,2′-((2-Isopropoxy-1,4-phenylene)bis(((4-methoxyphenyl)sulfonyl)azanediyl))diacetic Acid] gave a solubility in series [1] of 288 µg/mL (≈ 463 µM). Further, the “logPe (permeability coefficient)” value in series [6] is -4.74.

For `COc1ccc(S(=O)(=O)N(CC(=O)O)c2ccc(N(Cc3nnn[nH]3)S(=O)(=O)c3ccc(OC)cc3)c(OCc3ccccc3)c2)cc1` [Compound 52, N-(4-((N-((1H-Tetrazol-5-yl)methyl)-4-methoxyphenyl)sulfonamido)-3-(benzyloxy)phenyl)-N-((4-methoxyphenyl)sulfonyl)glycine], in series [1], the solubility stood at 256 µg/mL (≈ 368 µM).

On to `COC(=O)/C=C/C(=O)OC` [DMF, dimethyl fumarate], for which, in series [2], the “NQO1 induction, concentration-response” value is listed as “Dose-dependent induction”.

In the case of `COc1ccc(S(=O)(=O)N(CC(=O)O)c2ccc(N(CC(=O)O)S(=O)(=O)c3ccc(OC)cc3)c(-c3ccccc3)c2)cc1` [Compound 34, 2,2′-([1,1′-Biphenyl]-2,5-diylbis(((4-methoxyphenyl)sulfonyl)azanediyl))diacetic Acid], the “DSF ΔTi” value in series [7] was 0.1–1.2 °C. This compound also came in with a solubility in series [1] of 298 µg/mL (≈ 465 µM).

In the case of `COc1ccc(S(=O)(=O)N(Cc2nnn[nH]2)c2ccc(N(Cc3nnn[nH]3)S(=O)(=O)c3ccc(OC)cc3)c(OCc3ccccc3)c2)cc1` [Compound 42, N-((1H-Tetrazol-5-yl)methyl)-N-(4-((N-((1H-tetrazol-5-yl)methyl)-4-methoxyphenyl)sulfonamido)-2-(benzyloxy)phenyl)-4-methoxybenzenesulfonamide], the solubility in series [1] was < 50 µg/mL.

With `COc1ccc(S(=O)(=O)N(CC#N)c2ccc(N(CC#N)S(=O)(=O)c3ccc(OC)cc3)c(OCc3ccccc3)c2)cc1` [Compound 41, N,N′-[2-(Benzyloxy)-1,4-phenylene]bis[N-(cyanomethyl)-4-methoxybenzenesulfonamide]], the solubility in series [1] is < 50 µg/mL. Moreover, the “logPe (permeability coefficient)” value in series [6] was -4.19.

As for `COc1ccc(S(=O)(=O)N(CC(N)=O)c2ccc(N(CC(N)=O)S(=O)(=O)c3ccc(OC)cc3)c(OCc3ccccc3)c2)cc1` [Compound 40, 2,2′-((2-(Benzyloxy)-1,4-phenylene)bis(((4-methoxyphenyl)sulfonyl)azanediyl))diacetamide], the solubility in series [1] is < 50 µg/mL.

Consider `COc1ccc(S(=O)(=O)N(CC(=O)O)c2ccc(N(CC(=O)O)S(=O)(=O)c3ccc(OC)cc3)c(OCc3cccc(OC)c3)c2)cc1` [Compound 38, 2,2′-((2-((3-Methoxybenzyl)oxy)-1,4-phenylene)bis(((4-methoxyphenyl)sulfonyl)azanediyl))diacetic Acid], for which the concentration in solution in series [1] (solubility) came to 379 µg/mL (≈ 541 µM).
